Test results: patent US20240299393A1, “SMALL MOLECULE DISRUPTORS OF PROTEIN INTERACTIONS IN HISTONE DEACETYLASE COMPLEXES” (Dana-Farber Cancer Institute, Inc., priority 2021, published 2024)
Entries after “also recorded” stand apart in the source; their conditions may differ.

What was measured:
[1] = target: T1, Sin3 occupancy (Saccharomyces cerevisiae, UniProt P22579); test: ChIP-qPCR and ChIP-seq of Sin3-(HA)3 in yeast; assay type: cell-based, S. cerevisiae; details: for Sin3 occupancy at URS-URA3 and INO1 (ChIP-qPCR) / number of genes with decreased Sin3 occupancy (ChIP-seq): 400 μM; for Sin3 occupancy at URS-URA3 and INO1 (ChIP-qPCR): 2 h; for number of genes with decreased Sin3 occupancy (ChIP-seq) / number of genes with reduced Sin3 occupancy (ChIP-seq): of 545 Sin3-occupied genes; for number of genes with decreased Sin3 occupancy (ChIP-seq): FIG. 5D; for number of genes with reduced Sin3 occupancy (ChIP-seq): FIG. 5K
T1 construct: expressed in transfected cells; host or cells: S. cerevisiae JOY116 (sin3Δ) transformed with YEplac181-Sin3-(HA)3
T1 sequence (P22579 whole entry): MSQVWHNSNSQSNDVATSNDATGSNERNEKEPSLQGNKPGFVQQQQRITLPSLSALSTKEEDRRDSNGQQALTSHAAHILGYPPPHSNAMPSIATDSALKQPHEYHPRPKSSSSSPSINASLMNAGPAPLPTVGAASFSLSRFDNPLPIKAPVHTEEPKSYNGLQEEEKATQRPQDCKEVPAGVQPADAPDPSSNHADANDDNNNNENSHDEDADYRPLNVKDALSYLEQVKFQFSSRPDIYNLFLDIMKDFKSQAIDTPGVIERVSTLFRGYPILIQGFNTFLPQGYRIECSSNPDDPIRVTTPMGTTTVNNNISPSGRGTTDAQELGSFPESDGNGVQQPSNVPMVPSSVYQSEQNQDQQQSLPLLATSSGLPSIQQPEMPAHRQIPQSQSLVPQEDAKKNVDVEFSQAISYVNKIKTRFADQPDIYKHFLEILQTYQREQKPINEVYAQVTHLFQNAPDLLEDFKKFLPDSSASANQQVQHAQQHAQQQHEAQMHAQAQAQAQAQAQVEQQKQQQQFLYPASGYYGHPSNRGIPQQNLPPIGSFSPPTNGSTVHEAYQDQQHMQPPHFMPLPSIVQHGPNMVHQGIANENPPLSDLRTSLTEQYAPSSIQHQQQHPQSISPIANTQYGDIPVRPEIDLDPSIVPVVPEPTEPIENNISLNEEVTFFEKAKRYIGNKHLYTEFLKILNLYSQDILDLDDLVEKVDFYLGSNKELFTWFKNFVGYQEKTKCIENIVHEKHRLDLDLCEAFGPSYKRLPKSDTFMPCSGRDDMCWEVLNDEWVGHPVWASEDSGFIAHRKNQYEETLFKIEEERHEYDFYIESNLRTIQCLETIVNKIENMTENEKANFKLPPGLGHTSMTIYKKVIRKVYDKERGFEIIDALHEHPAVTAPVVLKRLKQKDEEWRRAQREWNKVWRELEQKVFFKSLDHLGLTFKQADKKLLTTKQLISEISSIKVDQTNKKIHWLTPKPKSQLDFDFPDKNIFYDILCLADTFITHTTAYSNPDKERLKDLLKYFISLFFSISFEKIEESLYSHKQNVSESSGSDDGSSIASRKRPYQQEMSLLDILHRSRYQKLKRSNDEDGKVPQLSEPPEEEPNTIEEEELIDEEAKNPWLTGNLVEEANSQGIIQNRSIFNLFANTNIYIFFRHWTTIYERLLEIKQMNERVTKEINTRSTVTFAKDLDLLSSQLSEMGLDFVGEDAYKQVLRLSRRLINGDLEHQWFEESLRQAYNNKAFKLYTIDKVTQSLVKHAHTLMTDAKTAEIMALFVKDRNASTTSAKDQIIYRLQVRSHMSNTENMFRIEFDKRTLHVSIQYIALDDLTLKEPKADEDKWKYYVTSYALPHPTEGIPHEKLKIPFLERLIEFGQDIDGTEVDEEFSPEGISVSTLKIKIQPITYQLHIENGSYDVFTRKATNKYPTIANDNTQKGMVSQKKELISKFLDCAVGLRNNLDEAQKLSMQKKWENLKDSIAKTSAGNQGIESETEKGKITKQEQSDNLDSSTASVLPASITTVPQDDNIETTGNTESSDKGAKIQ
Description: ChIP procedures in yeast were adapted from previously established protocols, with minor modifications [Sertil et al 2007, Jezek et al 2017, Barski et al 2007]. Briefly, yeast S. cerevisiae JOY116 (sin3Δ) cells transformed with the YEplac181-Sin3-(HA)3 plasmid were cultured in liquid SC-L, until OD600 nm reached ˜0.7. […] (200 rpm). After 2 h of incubation, cells were treated with 1% formaldehyde for 20 min at 4° C. for cross-linking. Then, 125 mM glycine was applied for 5 min at room temperature to quench cross-linking. Yeast cells were centrifuged (10 min at 1,000 g), and the resulting pellets were washed twice with 50 mL ice-cold phosphate-buffered saline (PBS). Yeast pellets were resuspended in 500 μL of ChIP lysis buffer (50 mM HEPES-KOH pH 7.5, 140 mM NaCl, 1 mM EDTA, 1% Triton X-100, 0.1% sodium deoxycholate, 0.1% SDS, and yeast protease inhibitors). After that, 500 μL of the yeast suspensions in lysis buffer were mixed with 500 μL of zirconia beads in a screw-top microcentrifuge tube. For cell lysis, the tubes were vortexed at maximum speed for 15 min at 4° C. Cell lysates were collected by punching a hole on the bottom of the screw-cap tube, with a sterile needle, and centrifuging the lysates into new Eppendorf tubes. Then, 300 μL of lysates were added into 1.5 mL Bioruptor Pico microtubes with caps (Diagenode, cat #C30010016), and subsequent sonication was conducted with a Bioruptor Pico sonication device, in the following conditions: 30 s/3 cycles on, and 30 s/3 cycles off, at 4° C. The sonicated lysates were cleared by 30 min centrifugation at maximum speed at 4° C. The resulting cleared lysates, with sheared chromatin, were saved, snap freezed, and stored at −80° C. until use. Next, 10 μL cleared lysates were reverse-cross linked overnight, at 65° C., in the presence of proteinase K. Phenol-chloroform extractions and EtOH precipitations were then applied to purify the sheared DNA. DNA agarose gel running and DNA concentration measurements with a NanoDrop spectrophotometer were finally conducted to assess the size and yield of the sheared DNA, respectively.
For the pull-downs, 25 μg of sheared chromatin from each sample were diluted (1:10) in ice-cold dilution buffer (1% Triton X-100, 2 mM EDTA, 20 mM Tris-HCl pH 8, 150 mM NaCl, and yeast protease inhibitors), and mixed with 10 μg ChIP-grade anti-HA (Abcam, cat #ab9110), or isotype control anti-IgG (Abcam, cat #ab171870) antibodies. Then, 50 μL of pre-washed Dynabeads Protein G for Immunoprecipitation (ThermoFisher, cat #10003D) were added to each individual sample. Chromatin immunoprecipitation was performed by incubating samples at 4° C. overnight, under gentle shaking (300 rpm). The day after, the Dynabeads were washed three times with 1 mL ice-cold wash buffer (0.1% SDS, 1% Triton X-100, 2 mM EDTA, 20 mM Tris-HCl pH 8, 150 mM NaCl), and then once with 1 mL ice-cold final wash buffer (0.1% SDS, 1% Triton X-100, 2 mM EDTA pH 8, 20 mM Tris-HCl pH 8, 500 mM NaCl), using a magnetic rack. DNA was eluted with 120 μL elution buffer (1% SDS, 100 mM NaHCO3), by incubating samples at 30° C. for 15 min. For input, 10 μL of sheared cell lysates were added to 110 μL of elution buffer. Then, 4 μL proteinase K were added to the eluted DNA or inputs, and reverse-cross linking was achieved by incubating samples overnight at 65° C. After overnight incubation, phenol-chloroform extractions and EtOH precipitations were conducted to purify ChIP-DNA. The ChIP-DNA was eluted in a total volume of 200 μL ddH2O, and then used for ChIP-qPCR or ChIP-Seq. Briefly, for ChIP-qPCR, 4 μL of eluted ChIP-DNA were mixed with 5 μL of PowerUp SYBR Green master mix (Applied Biosystems, cat #A25743), and 1 μL of the primer mix (forward+reverse; 3 μM final concentration), for a total volume of 10 μL. Two technical replicates were generated for each DNA sample from three ChIP replicates. ChIP-DNA samples were then transferred into the 384-well skirted PCR plate (Applied Biosystems, cat #4343370). […]

[2] = test system: Rpd3-sensitive acid phosphatase activity; test: Yeast acid phosphatase plate assay; assay type: cell-based, S. cerevisiae; details: phosphate-rich (high Pi) medium
Description: The acid phosphatase plate assay was implemented as previously described [To et al 1973, Loewith et al 2001], with minor modifications. Cells were grown on high Pi medium (see above) for 2 days, at 30° C. A staining solution containing 2 mg/mL of 1-naphtyl phosphate (Sigma, N5602) and 4 mg/mL fast blue B salt (Sigma, D9805) was then prepared in 50 mM sodium acetate buffer pH 4.0±0.1, and maintained at 50° C. for ˜30 min before being filtered. Meanwhile, a solution of 10 mg/mL (1% weight/volume) ultra pure low melting point (LMP) agarose (Invitrogen, 15517-022) was prepared in 50 mM sodium acetate buffer pH 4.0±0.1, by microwaving the suspension until complete dissolution of the powder. The volume of the agarose solution was checked and readjusted with 50 mM sodium acetate buffer pH 4.0±0.1. The agarose solution was then mixed with the filtered staining solution by vortexing briefly, and the resulting suspension was kept at 50° C. for ˜15 min. The solid agar plate on which cells grew for 2 days were then gently overlaid with the agarose-containing staining solution, allowing its gelification on top of the cells. A red coloring started to appear ˜2 min after covering cells with the solution.

SMILES | Sin3 occupancy at URS-URA3 and INO1 (ChIP-qPCR) [1] | number of genes with decreased Sin3 occupancy (ChIP-seq) [1] [genes] | Sin3 occupancy at INO1, IME2 and CAR1 (ChIP-Seq traces) ([1]; not at SPO3 or TRK2) | number of genes with reduced Sin3 occupancy (ChIP-seq) [1] [genes] | Rpd3-sensitive acid phosphatase activity [2]
CC(NC(=O)c1c(O)n2ccccc2nc1=O)c1ccccc1 (racemic) [E6] | significantly decreased; also recorded: decreased occupancy | 360 | reduced | 450 | opposite behavior
CC(/C=C/C(=O)NO)=C\[C@@H](C)C(=O)c1ccc(N(C)C)cc1 [TSA, trichostatin A] | appeared to prevent recruitment of Sin3; also recorded: decreased occupancy | 142 | – | 295 | induced
